Read-outs that look alike come from different tables or passages of the source.

One assay concerns the target T1, BRD4 (BDI_K57-E168) (Homo sapiens, UniProt O60885).
T1 construct: BD1: amino acids K57-E168; made in house
Briefly: TR-FRET bromodomain binding assay, first bromodomain of BRD4. The note with it: His-tagged BD1, 100 nM Alexa647 probe; TR-FRET protocol A-E given per row. A digest of the protocol:
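His-tagged BRD4 BD1 (K57-E168), 8 nM, with 1 nM Eu-anti-His antibody and 100 nM Alexa647-labelled BET-inhibitor probe in pH 6.0 phosphate buffer, 2% DMSO. TR-FRET read after 1 h at room temperature. IC50 from 4-parameter fit, converted to Ki using probe Kd and concentration.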
Background: Time-resolved FRET reads energy transfer from a long-lived donor to a nearby acceptor.

In a further assay the target is T2, BRD4 (BDII_E352-M457) (Homo sapiens, UniProt O60885).
T2 construct: proliferation; Protocol; made in house
In words: TR-FRET bromodomain binding assay, second bromodomain of BRD4. The note with it: His-tagged BD2, 30 nM Alexa647 probe; TR-FRET protocol A-E given per row. A digest of the protocol:
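His-tagged BRD4 BD2 ([…]) competed against an Alexa647-labelled BET-inhibitor probe in TR-FRET. Buffer was 20 mM sodium phosphate pH 6.0, 50 mM NaCl, 1 mM EDTA, 0.01% Triton X-100, 1 mM DTT, with method D DMSO series of 2.5 mM–800 nM (stock range). IC50 from 4-parameter fit, Ki from probe Kd and concentration.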

Assay [1] relates to breast cancer cell line MX-1. In words: MX-1 cell line proliferation assay. The note with it: MX-1 cells, 3-day proliferation assay, Cell Titer Glo, read-out: Cellular proliferation EC50. The assay is classed as cell-based. A digest of the protocol:
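Cells seeded at 5000/well in RPMI 1640 with 10% FBS, allowed to adhere overnight at 37 °C, then exposed to compound at final 0.0001–3 μM for 3 days. Viability read by Cell Titer Glo luminescence, normalized to DMSO controls; EC50 from sigmoidal curve fit.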

For the molecule `Cn1cc(-c2cc(CS(C)(=O)=O)ccc2NCC2CC2)c2cc[nH]c(=O)c21` [Example 110, 3-{2-[(cyclopropylmethyl)amino]-5-[(methylsulfonyl)methyl]phenyl}-1-methyl-1,6-dihydro-7H-pyrrolo[2,3-c]pyridin-7-one], the Ki (usually the dissociation constant of the complex between target and ligand, obtained from inhibition or displacement) at BRD4 (BDI_K57-E168) was 0.061 µM; at BRD4 (BDII_E352-M457), 0.215 µM. Also, the EC50 in assay [1] (Homo sapiens, MX1, 72 h) came out at 0.136 µM.
On the same counts, the results for `Cn1cc(-c2cc(S(C)(=O)=O)ccc2NCc2ccc(C#N)cc2)c2cc[nH]c(=O)c21` [Example 46, 4-({[2-(1-methyl-7-oxo-6,7-dihydro-1H-pyrrolo[2,3-c]pyridin-3-yl)-4-(methylsulfonyl)phenyl]amino}methyl)benzonitrile] are 0.205 µM, 1.09 µM and 0.479 µM.
Take `Cn1cc(-c2cc(CN3CCC(N)CC3)ccc2Oc2ccc(F)cc2F)c2cc[nH]c(=O)c21` [Example 111, 3-{5-[(4-aminopiperidin-1-yl)methyl]-2-(2,4-difluorophenoxy)phenyl}-1-methyl-1,6-dihydro-7H-pyrrolo[2,3-c]pyridin-7-one]: the Ki amounted to 0.908 µM on BRD4 (BDI_K57-E168) and 0.337 µM at BRD4 (BDII_E352-M457). Further, in assay [1] (Homo sapiens, MX1, 72 h), the EC50 was found to be 0.713 µM.
On the same counts, the results for `Cn1cc(-c2cc(CN3CCNCC3)ccc2Oc2ccc(F)cc2F)c2cc[nH]c(=O)c21` [Example 105, 3-[2-(2,4-difluorophenoxy)-5-(piperazin-1-ylmethyl)phenyl]-1-methyl-1,6-dihydro-7H-pyrrolo[2,3-c]pyridin-7-one] are 0.528 µM, 0.329 µM and 0.806 µM.
For `Cn1cc(-c2cc(NC(=O)c3cc(Cl)ccc3Cl)ccc2Oc2ccc(F)cc2F)c2cc[nH]c(=O)c21` [Example 148, 2,5-dichloro-N-[4-(2,4-difluorophenoxy)-3-(1-methyl-7-oxo-6,7-dihydro-1H-pyrrolo[2,3-c]pyridin-3-yl)phenyl]benzamide] the same measures were 0.0651 µM, 0.15 µM and 0.17 µM.
Regarding `Cn1cc(-c2cc(S(C)(=O)=O)ccc2NCC2CC2)c2cc[nH]c(=O)c21` [Example 44, 3-{2-[(cyclopropylmethyl)amino]-5-(methylsulfonyl)phenyl}-1-methyl-1,6-dihydro-7H-pyrrolo[2,3-c]pyridin-7-one], the Ki was determined as 0.014 µM on BRD4 (BDI_K57-E168) and 0.089 µM on BRD4 (BDII_E352-M457). For the same molecule, the EC50 in assay [1] (Homo sapiens, MX1, 72 h) was determined as 0.136 µM.
For `Cn1cc(-c2cc(CS(C)(=O)=O)ccc2Nc2ccccn2)c2cc[nH]c(=O)c21` [Example 203, 1-methyl-3-{5-[(methylsulfonyl)methyl]-2-(pyridin-2-ylamino)phenyl}-1,6-dihydro-7H-pyrrolo[2,3-c]pyridin-7-one] the same measures were 0.0138 µM, 0.0439 µM and 0.118 µM.
`CCS(=O)(=O)C(C)(C)c1ccc(Oc2ccc(F)cc2F)c(-c2cn(C)c3c(=O)[nH]ccc23)c1` [Example 54, 3-{2-(2,4-difluorophenoxy)-5-[2-(ethylsulfonyl)propan-2-yl]phenyl}-1-methyl-1,6-dihydro-7H-pyrrolo[2,3-c]pyridin-7-one]: the figures for the Ki on BRD4 (BDI_K57-E168) and at BRD4 (BDII_E352-M457) were 0.0034 µM and 0.026 µM, respectively. Besides, the EC50 in assay [1] (Homo sapiens, MX1, 72 h) is 0.021 µM.
Consider `Cn1cc(-c2cc(S(C)(=O)=O)ccc2OC2CCOCC2)c2cc[nH]c(=O)c21` [Example 24, 1-methyl-3-[5-(methylsulfonyl)-2-(tetrahydro-2H-pyran-4-yloxy)phenyl]-1,6-dihydro-7H-pyrrolo[2,3-c]pyridin-7-one], for which the inhibition constant Ki worked out at 0.017 µM at BRD4 (BDI_K57-E168) and 0.089 µM on BRD4 (BDII_E352-M457). The EC50 in assay [1] (Homo sapiens, MX1, 72 h) worked out at 0.231 µM.
On the same counts, the results for `CCS(=O)(=O)c1ccc(Oc2ccccc2C#N)c(-c2cn(C)c3c(=O)[nH]ccc23)c1` [Example 83, 2-[4-(ethylsulfonyl)-2-(1-methyl-7-oxo-6,7-dihydro-1H-pyrrolo[2,3-c]pyridin-3-yl)phenoxy]benzonitrile] are 0.043 µM, 0.046 µM and 0.1 µM.
On the same counts, the results for `Cn1cc(-c2cc(S(C)(=O)=O)ccc2OCC2COC2)c2cc[nH]c(=O)c21` [Example 30, 1-methyl-3-[5-(methylsulfonyl)-2-(oxetan-3-ylmethoxy)phenyl]-1,6-dihydro-7H-pyrrolo[2,3-c]pyridin-7-one] are 0.045 µM, 0.312 µM and > 3 µM.
As to `CCS(=O)(=O)Nc1ccc(Oc2ccc(F)cc2F)c(-c2cn(C)c3c(=O)[nH]c(C(=O)NCCN4CCN(C)CC4)cc23)c1` [Example 197, 3-{2-(2,4-difluorophenoxy)-5-[(ethylsulfonyl)amino]phenyl}-1-methyl-N-[2-(4-methylpiperazin-1-yl)ethyl]-7-oxo-6,7-dihydro-1H-pyrrolo[2,3-c]pyridine-5-carboxamide], the figures for the inhibition constant (Ki) on BRD4 (BDI_K57-E168) and at BRD4 (BDII_E352-M457) were 0.00205 µM and 0.00423 µM, respectively. The EC50 in assay [1] (Homo sapiens, MX1, 72 h) was found to be 0.0676 µM.
As for `CCS(=O)(=O)Nc1ccc(Oc2ccc(F)cc2F)c(-c2cn(C)c3c(=O)[nH]c(C(=O)NCC4CCOC4)cc23)c1` (stereo not drawn) [Example 199, 3-{2-(2,4-difluorophenoxy)-5-[(ethylsulfonyl)amino]phenyl}-1-methyl-7-oxo-N-(tetrahydrofuran-3-ylmethyl)-6,7-dihydro-1H-pyrrolo[2,3-c]pyridine-5-carboxamide], the Ki came out at 0.00363 µM on BRD4 (BDI_K57-E168) and 0.0065 µM on BRD4 (BDII_E352-M457). Moreover, the EC50 in assay [1] (Homo sapiens, MX1, 72 h) was determined as 0.0368 µM.
`Cn1cc(-c2cc(CNCCC3CCCC3)ccc2Oc2ccc(F)cc2F)c2cc[nH]c(=O)c21` [Example 128, 3-[5-{[(2-cyclopentylethyl)amino]methyl}-2-(2,4-difluorophenoxy)phenyl]-1-methyl-1,6-dihydro-7H-pyrrolo[2,3-c]pyridin-7-one]: the inhibition constant (Ki) on BRD4 (BDI_K57-E168) came out at 1.49 µM; on BRD4 (BDII_E352-M457), 0.654 µM. For the same molecule, in assay [1] (Homo sapiens, MX1, 72 h), the EC50 was > 3 µM.
Consider `Cc1oncc1S(=O)(=O)NCc1ccc(Oc2ccc(F)cc2F)c(-c2cn(C)c3c(=O)[nH]ccc23)c1` [Example 139, N-[4-(2,4-difluorophenoxy)-3-(1-methyl-7-oxo-6,7-dihydro-1H-pyrrolo[2,3-c]pyridin-3-yl)benzyl]-5-methyl-1,2-oxazole-4-sulfonamide], for which the Ki at BRD4 (BDI_K57-E168) worked out at 0.129 µM; on BRD4 (BDII_E352-M457) it was 0.525 µM. Besides, the EC50 in assay [1] (Homo sapiens, MX1, 72 h) is > 3 µM.
In the case of `CCS(=O)(=O)Nc1ccc(Oc2ccc(Cl)cc2)c(-c2cn(C)c3c(=O)[nH]ccc23)c1` [Example 5, N-[4-(4-chlorophenoxy)-3-(1-methyl-7-oxo-6,7-dihydro-1H-pyrrolo[2,3-c]pyridin-3-yl)phenyl]ethanesulfonamide], the results for the Ki at BRD4 (BDI_K57-E168) and on BRD4 (BDII_E352-M457) were 0.01 µM and 0.029 µM, respectively. Also, the EC50 in assay [1] (Homo sapiens, MX1, 72 h) turned out to be 0.067 µM.
Turning to `CN(C)C1CCN(Cc2ccc(Oc3ccc(F)cc3F)c(-c3cn(C)c4c(=O)[nH]ccc34)c2)CC1` [Example 113, 3-[2-(2,4-difluorophenoxy)-5-{[4-(dimethylamino)piperidin-1-yl]methyl}phenyl]-1-methyl-1,6-dihydro-7H-pyrrolo[2,3-c]pyridin-7-one], the Ki on BRD4 (BDI_K57-E168) came to 0.583 µM; on BRD4 (BDII_E352-M457) it was 0.506 µM. Also, the EC50 in assay [1] (Homo sapiens, MX1, 72 h) was found to be 1.63 µM.
For the molecule `CCS(=O)(=O)C(C)c1ccc(Oc2ccc(F)cc2F)c(-c2cn(C)c3c(=O)[nH]ccc23)c1` (single isomer, unassigned) [Example 57], the values for the inhibition constant Ki on BRD4 (BDI_K57-E168) and at BRD4 (BDII_E352-M457) were 0.014 µM and 0.037 µM, respectively. For the same molecule, the EC50 in assay [1] amounted to 0.066 µM.
Turning to `Cn1cc(-c2cc(S(C)(=O)=O)ccc2OCC2CC2)c2cc[nH]c(=O)c21` [Example 20, 3-[2-(cyclopropylmethoxy)-5-(methylsulfonyl)phenyl]-1-methyl-1,6-dihydro-7H-pyrrolo[2,3-c]pyridin-7-one], the inhibition constant Ki is 0.018 µM on BRD4 (BDI_K57-E168) and 0.165 µM on BRD4 (BDII_E352-M457). For the same molecule, the EC50 in assay [1] (Homo sapiens, MX1, 72 h) amounted to 0.181 µM.
For `CCS(=O)(=O)Nc1ccc(Oc2ccc(F)cc2F)c(-c2cn(C)c3c(=O)[nH]c(C(=O)N4CCCC4)cc23)c1` [Example 193, N-{4-(2,4-difluorophenoxy)-3-[1-methyl-7-oxo-5-(pyrrolidin-1-ylcarbonyl)-6,7-dihydro-1H-pyrrolo[2,3-c]pyridin-3-yl]phenyl}ethanesulfonamide] the same measures were 0.0043 µM, 0.0413 µM and 0.111 µM.
On to `Cn1cc(-c2cc(CS(C)(=O)=O)ccc2Nc2ccc(F)cc2)c2cc[nH]c(=O)c21` [Example 121, 3-{2-[(4-fluorophenyl)amino]-5-[(methylsulfonyl)methyl]phenyl}-1-methyl-1,6-dihydro-7H-pyrrolo[2,3-c]pyridin-7-one], for which the inhibitory constant (Ki) on BRD4 (BDI_K57-E168) is 0.012 µM; on BRD4 (BDII_E352-M457), 0.079 µM. In assay [1] (Homo sapiens, MX1, 72 h), the EC50 was determined as 0.04 µM.
As to `CCS(=O)(=O)Nc1ccc(Oc2ccc(F)cc2F)c(-c2cn(C)c3c(=O)[nH]c(C(=O)NCCCn4ccnc4)cc23)c1` [Example 187, 3-{2-(2,4-difluorophenoxy)-5-[(ethylsulfonyl)amino]phenyl}-N-[3-(1H-imidazol-1-yl)propyl]-1-methyl-7-oxo-6,7-dihydro-1H-pyrrolo[2,3-c]pyridine-5-carboxamide], the Ki at BRD4 (BDI_K57-E168) stood at 0.00121 µM; on BRD4 (BDII_E352-M457), 0.00202 µM. Besides, the EC50 in assay [1] (Homo sapiens, MX1, 72 h) was 0.0647 µM.

The values are drawn from US9321764B2, “Dihydro-pyrrolopyridinone inhibitors” (AbbVie Inc., priority 2013, dated 2016).
